Test results taken from patent US12636379B2, “Microbubble-chemotherapeutic agent complex for sonodynamic therapy” (UNIVERSITY OF ULSTER, priority 2015, dated 2026).

Key:
[1] = Fluorescence emission spectra compared with Cardio Green; type: physicochemical
Text: The new compounds clearly show similar absorption profiles to Cardio Green. […] This is attributed to increased ISC due to the additional iodine atoms.

[2] = tested on: Mia Paca cells; test: In vitro cytotoxicity with 780 nm irradiation; type: cell-based; conditions: exposed to 780 nm irradiation
[3] = tested on: BxPC-3 cells; test: In vitro cytotoxicity with 780 nm irradiation; type: cell-based; conditions: exposed to 780 nm irradiation
[4] = Singlet oxygen production (SOSG intensity) on 780 nm excitation; type: physicochemical; conditions: excited at 780 nm
Text: Increased SOSG intensity is indicative of singlet oxygen production.

[5] = tested on: HeLa cervical cancer cell line; test: In vitro cytotoxicity with 780 nm excitation; type: cell-based; conditions: excited at 780 nm
[6] = tested on: MIA PaCa-2 cells; test: Combined antimetabolite/sonodynamic therapy with free agents, MTT assay; conditions: 3 μM RB and/or 50 μM 5FU, 3 h; US 30 sec, 1 MHz; MTT 24 h; n=6
Experimental: The cells were incubated with either 3 μM RB and 50 μM 5FU (or both) for 3 h as these represent sub-lethal doses and enabled synergy to be identified if evident. Ultrasound exposure was 30 sec, 3 W/cm^2, 1 MHz, 50% duty cycle; pulse repetition frequency of […]. Cell viability was determined 24 h following treatment using a MTT assay.
Human primary pancreatic adenocarcinoma cell lines MIA PaCa-2 were maintained in Dulbecco's Modified Eagle's Medium and supplemented with 10% (v/v) foetal bovine serum in a humidified 5% CO2 atmosphere at 37° C. The cells were plated into the wells of a 96-well plate at a concentration of 4×10^3 cells per well and incubated for 21 h at 37° C. in a humidified 5% CO2 atmosphere. The medium was then removed and wells treated with either Rose Bengal, ([…]), 5-Fluorouracil (50 μM) or a combination of both RB (3 μM) and 5-FU (50 μM) for 3 h. The drug solutions were then removed, fresh media added and selected wells treated with ultrasound delivered using a Sonidel SP100 sonoporator (30 sec, frequency=1 MHz, ultrasound power density=3.0 Wcm^−2, duty cycle=50% with pulse repetition frequency=100 Hz). The cells were then incubated for 24 h before cell viability was determined using a MTT assay.

[7] = tested on: BxPc-3 tumours; test: In vivo cytotoxicity: intratumoural treatment of ectopic xenograft tumours, tumour volume; design: species or system mice; conditions: 9 days after single intratumoural treatment; 440 μM gemcitabine or 5-FU alone; mix (90.8 μM RB, 440 μM 5FU) +US
Text: FIG. 8 is a plot of (a) % change in tumour volume and (b) average body weight for mice treated with (i) no treatment (open diamonds) (ii) ultrasound only (filled diamonds) (iii) gemcitabine (open triangles) (iv) O2MB-RB/O2MB-5FU mix-US (open circles) (v) O2MB-RB+US (filled squares) (vi) O2MB-RB/O2MB-5FU mix+US (filled circles). Not shown for ease of illustration are treatments with 5-FU alone, O2MB-RB-US, O2MB-5FU+US, O2MB-5FU-US. The RB, 5-FU and gemcitabine concentrations were kept constant in each case at 0.184 mg/kg (90.8 μM), 0.115 mg/kg (440 μM) and 0.264 mg/kg (440 μM) respectively. Ultrasound treatment was delivered for 30 sec at frequency of 1 MHz, an ultrasound power density of 3.0 Wcm^−2 and a duty cycle of 50%, pulse frequency=100 Hz. […]
BxPc-3 cells were maintained in RPMI-1640 medium supplemented with 10% foetal calf serum as described above. […] Once the tumours had reached an average volume of 218 mm^3, calculated from the geometric mean diameter using the equation tumour volume=4πR^3/3, animals were randomly distributed into 10 groups (n=4). […] After treatment, animals were allowed to recover from anaesthesia and tumour volume and body weight were recorded daily for nine days. The % increase in tumour volume was calculated employing the pre-treatment measurements for each group.

[8] = tested on: ectopic BxPC-3 tumours; test: Systemic (IP) gemcitabine therapy of ectopic tumours, tumour volume; type: in vivo, mice; conditions: 120 mg/kg IP on days 0, 3 and 8
Experimental: FIG. 9 is a plot of % change in tumour volume for mice treated with IP gemcitabine (120 mg/kg on days 0, 3 and 8) (filled squares) or vehicle only (filled diamonds). Error bars represent+the standard error where n=4.
In order to compare the effectiveness of the combined SDT/5-FU therapy against systemic gemcitabine therapy, we treated mice bearing ectopic BxPC-3 tumours with gemcitabine (120 mg/kg) administered by intraperitoneal (IP) injection on days 0, 3 and 8. Tumour volume was measured daily as before and compared to untreated animal controls.

[9] = tested on: Bcl2; conditions: MIA PaCa-2 pancreatic cancer xenograft model; cited from earlier work
[10] = tested on: ectopic BxPC-3 pancreatic tumors; test: Tumour localisation after tail vein administration; type: in vivo, mice; conditions: 18 hours following tail vein administration

| SMILES | fluorescence emission in comparison to cardio green [1] | cytotoxicity compared with cardio green [2] | cytotoxicity compared with cardio green [3] | singlet oxygen production [4] | toxicity compared with Cardio Green [5] | reduction in cell viability with ultrasound relative to the same treatment without ultrasound [6] [%] | tumour growth over original starting volume [7] [%] | other results |
| --- | --- | --- | --- | --- | --- | --- | --- | --- |
| CC1(C)C(/C=C/C2=C(Cl)C(=C/C=C3/N(CCCCS(=O)(=O)O)c4cc(I)cc(I)c4C3(C)C)/CCC2)=[N+](CCCCS(=O)(=O)O)c2cc(I)cc(I)c21 [Compound I4-IRCYDYE, 2-((E)-2-((E)-2-chloro-3-((E)-2-(4,6-diiodo-3,3-dimethyl-1-(4-sulfobutyl)indolin-2-ylidene)ethylidene)cyclohex-1-en-1-yl)vinyl)-4,6-diiodo-3,3-dimethyl-1-(4-sulfobutyl)-3H-indol-1-ium] | considerably quenched | significantly more cytotoxic | significantly more cytotoxic | more singlet oxygen than Cardio Green | more toxic |  |  |  |
| O=c1[nH]cc(F)c(=O)[nH]1 [Compound 5-FU, 5-fluorouracil] |  |  |  |  |  | 5.9 | 123.3 |  |
| Nc1ccn([C@@H]2O[C@H](CO)[C@@H](O)C2(F)F)c(=O)n1 [gemcitabine] |  |  |  |  |  |  | 125.1 | tumour volume relative to starting tumour volume [8]: at no point in the therapy did the tumour volume decrease below the starting tumour volume; tumour volume increase ([8]; control group about 100%): 38%; increase in tumour volume at day 6 ([8]; day 6): 20% |
| CN1CCN(CCCNc2cc3c4c(c(NCCCN5CCN(C)CC5)cc5c4c2C(=O)N(CCCN2CCOCC2)C5=O)C(=O)N(CCCN2CCOCC2)C3=O)CC1 [MM41] |  |  |  |  |  |  |  | reduction of Bcl2 levels at the protein level [9]: 40% |
| CC1(C)C(/C=C/C2=C(Cl)C(=C/C=C3/N(CCCCS(=O)(=O)O)c4ccc(I)cc4C3(C)C)/CCC2)=[N+](CCCCS(=O)(=O)O)c2ccc(I)cc21 [Compound I2-IRCYDYE, 2-((E)-2-((E)-2-chloro-3-((E)-2-(5-iodo-3,3-dimethyl-1-(4-sulfobutyl)indolin-2-ylidene)ethylidene)cyclohex-1-en-1-yl)vinyl)-5-iodo-3,3-dimethyl-1-(4-sulfobutyl)-3H-indol-1-ium] | remains similar to cardiogreen | significantly more cytotoxic | significantly more cytotoxic | more singlet oxygen than Cardio Green | more toxic |  |  | tumour localisation [10]: localises in tumor |
| O=C1OC2(c3cc(I)c(O)c(I)c3Oc3c2cc(I)c(O)c3I)c2c(Cl)c(Cl)c(Cl)c(Cl)c21 [RB, Rose Bengal] |  |  |  |  |  | 11.1 |  |  |
